Measured values: article PMC12518693, “Potent Fluorescent Probe for Target‐Engagement Studies of Allosteric Pyruvate Kinase Modulators” (Angewandte Chemie (International Ed. in English), 2025)
Values joined by “and” are separate entries in the source; they are usually repeats but may differ in a detail not shown here. Identical values can stand only once.

Assays:
[1] = tested on: HEK293 cells; assay: HEK293 cell viability assay (CellTiter-Glo 2.0); format: cell-based; details: 2 h
Procedure: Finally, the effects of tracer IV on cell viability were assessed. HEK293 cells were treated with IV at concentrations of 0, 0.01, 0.1, 1, and 10 µM for 2 h, after which cells were lysed, and intracellular ATP levels were quantified using the CellTiter‐Glo 2.0 assay (Figure S8a).
Figure S8. Cell viability assay (CellTiter-Glo 2.0) of HEK293 cells treated with different concentrations of tracer IV. (A) Cell viability assay performed on HEK293 cells incubated for 2 h with different concentrations of tracer IV or DMSO (0 nM IV) in FluoroBrite™ DMEM complete medium. Results are reported as relative luminescence values (mean ± SE, n=4, One Way ANOVA followed by Dunnett´s multiple comparison test). […] Results are reported as relative luminescence values (mean ± SE, n=4, One Way ANOVA followed by Dunnett´s multiple comparison test). […] Results are reported as relative luminescence values (mean ± SE, n=4, One Way ANOVA followed by Dunnett´s multiple comparison test).
The effect of tracer IV on cell viability was assessed using CellTiter-Glo 2.0 assay (Promega). This is a method that determines the number of viable cells by quantifying the amount of ATP in the metabolically active cells. […] Mono-oxygenation of luciferin catalyzed by luciferase in the presence of ATP will generate light which could be measured by luminometer. […]

[2] = tested on: HEK293 cells; assay: Live-cell uptake by confocal microscopy; format: cell-based; details: live HEK293, 1 µM
Procedure: To investigate the cellular permeability of IV, we employed confocal microscopy to monitor the uptake of the tracer in live HEK293 cells over time. The tracer was added to live cells at a final concentration of 1 µM, and real‐time fluorescence intensity was recorded immediately after addition. A rapid increase in fluorescence was observed, reaching a stable plateau approximately 4 min after addition, indicating fast cellular uptake and […] (Figure 3a and Video S1).
Fluorescence intensity was then continuously monitored for 60 min. To assess potential fluorophore degradation, corrected total cell fluorescence (CTCF) was calculated at each time point (Figure S6). Fluorescence values from regions of interest (ROIs) were integrated and normalized cell area and background signals in the absence of tracer.
To attach HEK293 cells to the bottom of 24-well imaging plates (Ibidi 82427), a Cell-Tak adhesive mixture (Corning, 354240) was used. It was prepared with a mixture of sodium bicarbonate (75 g/L), sodium hydroxide (40 g/L) and Cell-Tak (2.03 g/L) at a volume ratio of 291:5:4. For each well, 500 μL of Cell-Tak mix was added and incubated at room temperature for 30 min. […] For analysing intracellular fluorescence and distribution of IV within HEK293 cells, Z-stack images (22 images) were acquired after 5, 15, 30 and 60 min of incubation across a physical depth of ~22 μm. […]

[3] = target: PKL (Homo sapiens, UniProt P30613); assay: Surface plasmon resonance, PKL
Chain of PKL (P30613 1-543 isoform P30613-2): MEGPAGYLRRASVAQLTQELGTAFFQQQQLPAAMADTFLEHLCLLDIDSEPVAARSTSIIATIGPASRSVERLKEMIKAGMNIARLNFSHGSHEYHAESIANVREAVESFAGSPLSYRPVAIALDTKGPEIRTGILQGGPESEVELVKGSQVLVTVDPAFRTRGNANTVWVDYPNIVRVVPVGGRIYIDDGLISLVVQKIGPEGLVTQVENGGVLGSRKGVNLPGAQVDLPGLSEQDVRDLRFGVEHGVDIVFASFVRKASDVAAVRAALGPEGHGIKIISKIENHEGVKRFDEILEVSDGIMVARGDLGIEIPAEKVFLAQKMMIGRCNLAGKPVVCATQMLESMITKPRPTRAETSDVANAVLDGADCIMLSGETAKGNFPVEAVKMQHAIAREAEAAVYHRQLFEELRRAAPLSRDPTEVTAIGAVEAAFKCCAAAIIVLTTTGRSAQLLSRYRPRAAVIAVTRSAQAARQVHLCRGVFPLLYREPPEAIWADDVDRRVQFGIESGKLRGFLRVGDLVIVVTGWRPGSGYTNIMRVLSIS
Procedure: The surface was washed with 10 mM NaOH, 1M NaCl followed by immobilization of protein before subsequent deactivation by 1 M ethanolamine. Immobilization levels were typically 12000-16000 RU. The reference spot was treated as described, omitting the injection of PKL. Compound concentration series was injected over the immobilized protein in increasing concentrations using multi cycle (MCK) or single cycle kinetics (SCK) in running buffer (10 mM HEPES, 150 mM NaCl, 0.05% Tween20, 0.3% DMSO, pH 7.4). A 1:1 Langmuir interaction model is fitted to the experimental traces, enabling determination of kon, koff and Kd.

With `CN(C)c1ccc(S(=O)(=O)c2ccc3c(=O)n(Cc4cc[nH]n4)ncc3c2)c2nonc12` [Compound IV, 2-((1H-Pyrazol-3-yl)methyl)-6-((7-(dimethylamino)benzo[c][1,2,5]oxadiazol-4-yl)sulfonyl)phthalazin-1(2H)-one] the “effect on cell viability (intracellular ATP)” value ([1]; HEK293, 0.01-10 µM) was “does not affect cell viability”, the “effect on viability of transfected cells” value ([1]; HEK293 transfected with PKLNluc or Nluc plasmids, up to highest tested concentration) was “did not affect the viability” and the “time to stable fluorescence plateau after addition” value [2] was “approximately 4 min”. For the same compound, the Kd ([3]; K D SPR (PKL), 20 °C, mean ± SE n=3) was 37 ± 1 nM, the Kd ([3]; KD, independent replicates, single cycle kinetics, 1:1 Langmuir fit, Figure S14) was 38.8 nM and 36.9 nM and the “PKL selectivity over PKM2” value ([3]; SPR K D PKM2 vs PKL) was 37 fold. It also gave a koff ([3]; read-out: k off SPR (PKL)) of 0.00617 s⁻¹ and a kon ([3]; read-out: k on SPR (PKL)) of 168000 M⁻¹ s⁻¹.
